BindingDB's records for doi:10.1021/jm00114a002 (Abbott Laboratories, 1991)

Assay: Compound was tested in vitro for binding affinity for 5-hydroxytryptamine 1C receptor

SMILES	Ki [µM]
NC[C@@H]1O[C@H](c2ccccc2)Cc2c1ccc(Br)c2O	0.2
Cc1ccc2c(c1O)C[C@@H](C1CCCCC1)O[C@H]2CN	0.058
